Drawing on patent US20260325561A1, “4'-SUBSTITUTED NUCLEOSIDES AND NUCLEOTIDES AS ANTIVIRAL AGENTS” (THE SCRIPPS RESEARCH INSTITUTE, priority 2023, published 2026), this text covers EC50 and CC50 for 14 molecules.

One series concerns RSV A2. The series can be described thus: microbe, parasite or virus in culture. Format: cell-based. Particulars: human respiratory syncytial virus, HEp-2, 72 h, read-out: RSV A2 / Hep2 EC50.
The next series deals with DENV-2. The series can be described thus: microbe, parasite or virus in culture. Format: cell-based, DENV-2 16681. Particulars: Dengue virus, DENV2, HepG2, 24 h, read-out: DENV-2 / HepG2 EC50.
The nature of series [1]: in vitro. Particulars: human, hep2 cells.
The test system of the next series is HRV 16. The series can be described thus: microbe, parasite or virus in culture. The series is classed as cell-based, Human Rhinovirus 16 strain 11757. Particulars: Rhinovirus A, H1-HeLa, 48 h, read-out: HRV / H1 HeLa A16 EC50.
Another series deals with SARS-CoV-2. The series can be described thus: microbe, parasite or virus in culture. The series is classed as cell-based, SARS-CoV-2 strain USA-WA1/2020. Particulars: Severe acute respiratory syndrome coronavirus 2, HeLa-ACE2, 24 h, read-out: SARS-CoV-2 / HeLa-ACE2 EC50.
In a further series the test system is HRV 14. The series is described as follows: microbe, parasite or virus in culture. The series is classed as cell-based, Human Rhinovirus 14 strain 1059. Particulars: Rhinovirus B, H1-HeLa, 48 h, read-out: HRV / H1 HeLa B 14 EC50.
Series [2] can be described thus: in vitro. Particulars: human, hela-ace2 cells.
Series [3] can be described thus: in vitro. The settings on record: human, h1 hela cells.
The nature of series [4]: in vitro. Particulars: human, hepg2 cells.

The structures appear in SMILES notation.

In general, CC50 refers to the concentration giving 50% cytotoxicity. The low end stands for greater toxicity to the cells, the high end for lower toxicity to the cells.

For `C[C@]1(O)[C@H](n2ccc3c(N)ncnc32)O[C@](F)(CO)[C@H]1O` [Example 10, (2S,3S,4R,5R)-5-(4-amino-7H-pyrrolo[2,3-d]pyrimidin-7-yl)-2-fluoro-2-(hydroxymethyl)-4-methyltetrahydrofuran-3,4-diol], the EC50 in the series with RSV A2, with DENV-2, in the series with HRV 16, in the series on SARS-CoV-2 and in the series with HRV 14 was greater than 10 µM each time. Further, the CC50 in “in vitro [1]” and in “in vitro [3]” was greater than 99 µM in each case. Also, the CC50 at 24 h in “in vitro [2]” was greater than 99 µM. Also, in the series “in vitro [4]”, the CC50 at 72 h is greater than 99 µM.

As for `C#Cc1nc(N)c2ncn([C@@H]3O[C@](F)(CO)[C@@H](O)[C@H]3O)c2n1` [Example 18, (2S,3S,4R,5R)-5-(6-amino-2-ethynyl-9H-purin-9-yl)-2-fluoro-2-(hydroxymethyl)tetrahydrofuran-3,4-diol], the EC50 with RSV A2, with DENV-2, with HRV 16, in the series with SARS-CoV-2 and in the series on HRV 14 was greater than 10 µM throughout. Besides, the CC50 in the series “in vitro [1]” and in “in vitro [3]” was greater than 99 µM in each case. The CC50 at 24 h in the series “in vitro [2]” is greater than 99 µM. In addition, the CC50 at 72 h in “in vitro [4]” was greater than 99 µM.

For the molecule `OC[C@@]1(F)O[C@@H](n2ccc3cncnc32)[C@H](O)[C@@H]1O` [Example 23, (2S,3S,4R,5R)-2-fluoro-2-(hydroxymethyl)-5-(7H-pyrrolo[2,3-d]pyrimidin-7-yl)tetrahydrofuran-3,4-diol], the EC50 in the series on RSV A2 fell in the range of 1 to 10 µM; in the series on DENV-2, 0.1 to 1 µM; in the series on HRV 16, 1 to 10 µM; with SARS-CoV-2 it was 1 to 10 µM; in the series on HRV 14 it was 1 to 10 µM. For the same molecule, the CC50 in the series “in vitro [1]” and in “in vitro [3]” was 10 to 99 µM in each case. Besides, the CC50 at 24 h in “in vitro [2]” lay within 1 to 10 µM. This molecule registered a CC50 at 72 h in “in vitro [4]” of 1 to 10 µM.

In the case of `N#Cc1cn([C@@H]2O[C@](F)(CO)[C@@H](O)[C@H]2O)c2ncnc(N)c12` [Example 26, 4-amino-7-((2R,3R,4S,5S)-5-fluoro-3,4-dihydroxy-5-(hydroxymethyl)tetrahydrofuran-2-yl)-7H-pyrrolo[2,3-d]pyrimidine-5-carbonitrile], the EC50 in the series on RSV A2 was less than 0.1 µM; in the series on DENV-2 it was less than 0.1 µM; with HRV 16, greater than 10 µM; in the series on SARS-CoV-2, 0.1 to 1 µM; in the series with HRV 14, greater than 10 µM. Further, the CC50 was less than 1 µM in the series “in vitro [1]” and 1 to 10 µM in “in vitro [3]”. Further, the CC50 at 24 h in the series “in vitro [2]” was less than 1 µM. Further, the CC50 at 72 h in the series “in vitro [4]” was less than 1 µM.

As to `Nc1nc(Cl)c2ccn([C@@H]3O[C@](F)(CO)[C@@H](O)[C@H]3O)c2n1` [Example 27, (2S,3S,4R,5R)-5-(2-amino-4-chloro-7H-pyrrolo[2,3-d]pyrimidin-7-yl)-2-fluoro-2-(hydroxymethyl)tetrahydrofuran-3,4-diol], the EC50 with RSV A2, in the series on DENV-2, in the series with HRV 16, in the series with SARS-CoV-2 and in the series on HRV 14 was greater than 10 µM each time. In addition, the CC50 in “in vitro [1]” and in “in vitro [3]” was 10 to 99 µM in each case. This molecule also had a CC50 at 24 h in the series “in vitro [2]” of 10 to 99 µM. In “in vitro [4]”, the CC50 at 72 h fell in the range of 10 to 99 µM.

As for `Cc1nc(Cl)c2ccn([C@@H]3O[C@](F)(CO)[C@@H](O)[C@H]3O)c2n1` [Example 29, (2S,3S,4R,5R)-5-(4-chloro-2-methyl-7H-pyrrolo[2,3-d]pyrimidin-7-yl)-2-fluoro-2-(hydroxymethyl)tetrahydrofuran-3,4-diol], the EC50 with RSV A2, in the series with DENV-2, with HRV 16, in the series on SARS-CoV-2 and in the series with HRV 14 was greater than 10 µM each time. The CC50 at 24 h in the series “in vitro [2]” is greater than 99 µM. In the series “in vitro [3]”, this molecule came in with a CC50 greater than 99 µM. In the series “in vitro [4]”, this molecule gave a CC50 at 72 h greater than 99 µM.

`NC(=O)c1cc([C@@H]2O[C@](F)(COC(=O)c3ccccc3)[C@@H](O)[C@H]2O)n2ncnc(N)c12` [Example 34, ((2S,3S,4R,5S)-5-(4-amino-5-carbamoylpyrrolo[2,1-f][1,2,4]triazin-7-yl)-2-fluoro-3,4-dihydroxytetrahydrofuran-2-yl)methyl benzoate]: the EC50 was 0.1 to 1 µM with RSV A2; 1 to 10 µM with DENV-2; greater than 10 µM with HRV 16; greater than 10 µM in the series on SARS-CoV-2; greater than 10 µM in the series with HRV 14. For the same molecule, the CC50 was less than 1 µM in “in vitro [1]” and 1 to 10 µM in “in vitro [3]”. This molecule also had a CC50 at 24 h in “in vitro [2]” of 1 to 10 µM. This molecule registered a CC50 at 72 h in the series “in vitro [4]” of less than 1 µM.

For `COc1ncnc2c1ccn2[C@@H]1O[C@](F)(CO)[C@@H](O)[C@H]1O` [Example 41, (2S,3S,4R,5R)-2-fluoro-2-(hydroxymethyl)-5-(4-methoxy-7H-pyrrolo[2,3-d]pyrimidin-7-yl)tetrahydrofuran-3,4-diol], the EC50 with RSV A2, with DENV-2, with HRV 16, in the series with SARS-CoV-2 and in the series on HRV 14 was greater than 10 µM throughout. The CC50 in the series “in vitro [1]” and in “in vitro [3]” was 10 to 99 µM each time. This molecule also registered a CC50 at 24 h in “in vitro [2]” of 10 to 99 µM. This molecule returned a CC50 at 72 h in “in vitro [4]” of 10 to 99 µM.

For `Nc1nc(Cl)nc2c1ncn2[C@@H]1O[C@](F)(CO)[C@@H](O)[C@H]1O` [Example 43, (2S,3S,4R,5R)-5-(6-amino-2-chloro-9H-purin-9-yl)-2-fluoro-2-(hydroxymethyl)tetrahydrofuran-3,4-diol], the EC50 in the series on RSV A2, in the series with DENV-2, with HRV 16, in the series on SARS-CoV-2 and in the series on HRV 14 was greater than 10 µM each time. Further, the values for the CC50 in “in vitro [1]” and in the series “in vitro [3]” were greater than 99 µM and 10 to 99 µM, respectively. For the same molecule, in the series “in vitro [2]”, the 50% cytotoxic concentration (CC50) at 24 h is greater than 99 µM. Moreover, in “in vitro [4]”, the CC50 at 72 h lay in the range of 10 to 99 µM.

For `CC(C)OC(=O)[C@H](C)N[P@@](=O)(OC[C@@]1(F)O[C@@H](n2ccc3c(N)ncnc32)[C@H](O)[C@@H]1O)Oc1ccccc1` [Example 49, isopropyl ((R)-(((2S,3S,4R,5R)-5-(4-amino-7H-pyrrolo[2,3-d]pyrimidin-7-yl)-2-fluoro-3,4-dihydroxytetrahydrofuran-2-yl)methoxy)(phenoxy)phosphoryl)-L-alaninate], the EC50 was 1 to 10 µM with DENV-2, greater than 10 µM in the series on HRV 16, greater than 10 µM in the series with SARS-CoV-2 and 1 to 10 µM with HRV 14. The CC50 at 24 h in the series “in vitro [2]” is greater than 99 µM. In the series “in vitro [3]”, the CC50 was greater than 99 µM. Also, the CC50 at 72 h in the series “in vitro [4]” was greater than 99 µM.

`CCOc1nc(N)nc2c1ncn2[C@@H]1O[C@](F)(CO[P@@](=O)(N[C@@H](C)C(=O)OC(C)C)Oc2ccccc2)[C@@H](O)[C@]1(F)Cl` [Example 67, isopropyl ((((2S,3R,4S,5R)-5-(2-amino-6-ethoxy-9H-purin-9-yl)-4-chloro-2,4-difluoro-3-hydroxytetrahydrofuran-2-yl)methoxy)(phenoxy)phosphoryl)-L-alaninate]: the EC50 with RSV A2 was greater than 10 µM; with DENV-2 it was 1 to 10 µM; with SARS-CoV-2 it was greater than 10 µM; in the series on HRV 14 it was 1 to 10 µM. Moreover, the CC50 in the series “in vitro [1]” and in the series “in vitro [3]” was 10 to 99 µM throughout. In the series “in vitro [2]”, this molecule returned a CC50 at 24 h of 10 to 99 µM. This molecule also yielded a CC50 at 72 h in “in vitro [4]” of 10 to 99 µM.

On to `CCOc1nc(N)nc2c1ncn2[C@@H]1O[C@](F)(CO)[C@@H](O)[C@]1(F)Br` [Example 68, (2S,3R,4S,5R)-5-(2-amino-6-ethoxy-9H-purin-9-yl)-4-bromo-2,4-difluoro-2-(hydroxymethyl)tetrahydrofuran-3-ol], for which the EC50 in the series with RSV A2, in the series on DENV-2, with SARS-CoV-2 and in the series on HRV 14 was greater than 10 µM in each case. Also, the CC50 in “in vitro [1]” and in “in vitro [3]” was 10 to 99 µM in each case. The CC50 at 24 h in the series “in vitro [2]” was greater than 99 µM. In the series “in vitro [4]”, this molecule registered a CC50 at 72 h of 10 to 99 µM.

For the molecule `C#C[C@]1(O)[C@H](n2ccc3c(NCCC)ncnc32)O[C@](F)(CO)[C@H]1O` [Example 70, (2S,3S,4R,5R)-4-ethynyl-2-fluoro-2-(hydroxymethyl)-5-(4-(propylamino)-7H-pyrrolo[2,3-d]pyrimidin-7-yl)tetrahydrofuran-3,4-diol], the EC50 in the series with RSV A2, in the series on DENV-2, in the series with SARS-CoV-2 and with HRV 14 was greater than 10 µM each time. The CC50 in “in vitro [1]” and in the series “in vitro [3]” was 10 to 99 µM throughout. Further, in “in vitro [2]”, the CC50 at 24 h was greater than 99 µM. In the series “in vitro [4]”, this molecule had a CC50 at 72 h of 10 to 99 µM.

Take `CSc1ncnc2c1ccn2[C@@H]1O[C@](F)(CO)[C@@H](O)[C@H]1O` [Example 72, (2S,3S,4R,5R)-2-fluoro-2-(hydroxymethyl)-5-(4-(methylthio)-7H-pyrrolo[2,3-d]pyrimidin-7-yl)tetrahydrofuran-3,4-diol]: the EC50 in the series with RSV A2 was greater than 10 µM; in the series on DENV-2, 1 to 10 µM; in the series on SARS-CoV-2 it was 1 to 10 µM; in the series with HRV 14 it was greater than 10 µM. The CC50 in the series “in vitro [1]” is 10 to 99 µM; in “in vitro [3]”, greater than 99 µM. Moreover, in the series “in vitro [2]”, the CC50 at 24 h lay within 10 to 99 µM. In addition, the CC50 at 72 h in “in vitro [4]” lay in the range of 10 to 99 µM.
